Read-outs that look alike come from different tables or passages of the source.
Legend:
CYP3A4 = biological target: T1, CYP3A4 (Homo sapiens, UniProt P08684); assay: CYP inhibition assay, human liver microsomes, substrate midazolam; assay type: in vitro ADME; settings: human liver microsomes, 10 min incubation, LC-MS/MS; read-out: CYP Inhibition Activity (IC50/nM) CYP3A4
T1 construct: from tissue; host or cells: human liver microsomes
Outline: (§1)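 Test compound or positive inhibitor was combined with a pooled substrate mix and pre-incubated 20 min at 37 °C; reactions were started with pre-warmed NADPH and run 10 min at 37 °C. Cold acetonitrile stopped them, and supernatants were analysed by LC-MS/MS to derive % inhibition and IC50.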

CYP2C9 = biological target: T2, CYP2C9 (Homo sapiens, UniProt P11712); assay: CYP inhibition assay, human liver microsomes, substrate diclofenac; assay type: in vitro ADME
T2 construct: from tissue; host or cells: human liver microsomes
T2 sequence (P11712 whole entry): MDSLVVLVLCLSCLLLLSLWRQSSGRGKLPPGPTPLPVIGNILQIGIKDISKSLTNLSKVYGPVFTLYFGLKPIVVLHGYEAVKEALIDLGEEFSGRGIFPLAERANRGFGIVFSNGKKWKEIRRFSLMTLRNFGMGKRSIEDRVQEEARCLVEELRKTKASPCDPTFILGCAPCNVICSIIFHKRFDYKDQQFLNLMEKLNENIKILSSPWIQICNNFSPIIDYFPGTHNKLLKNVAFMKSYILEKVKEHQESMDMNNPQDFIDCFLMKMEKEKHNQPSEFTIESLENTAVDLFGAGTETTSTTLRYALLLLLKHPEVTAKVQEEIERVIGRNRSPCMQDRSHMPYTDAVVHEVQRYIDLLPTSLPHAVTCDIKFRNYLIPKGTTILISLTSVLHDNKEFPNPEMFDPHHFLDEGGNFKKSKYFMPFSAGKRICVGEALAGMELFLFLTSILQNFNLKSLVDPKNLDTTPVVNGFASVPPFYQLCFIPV
Outline: as §1

CYP2C19 = biological target: T3, CYP2C19 (Homo sapiens, UniProt P33261); assay: CYP inhibition assay, human liver microsomes, substrate S-mephenytoin; assay type: in vitro ADME; settings: human liver microsomes, 10 min incubation, LC-MS/MS; read-out: CYP Inhibition Activity (IC50/nM) CYP2C19
T3 construct: from tissue; host or cells: human liver microsomes
T3 sequence (P33261 whole entry): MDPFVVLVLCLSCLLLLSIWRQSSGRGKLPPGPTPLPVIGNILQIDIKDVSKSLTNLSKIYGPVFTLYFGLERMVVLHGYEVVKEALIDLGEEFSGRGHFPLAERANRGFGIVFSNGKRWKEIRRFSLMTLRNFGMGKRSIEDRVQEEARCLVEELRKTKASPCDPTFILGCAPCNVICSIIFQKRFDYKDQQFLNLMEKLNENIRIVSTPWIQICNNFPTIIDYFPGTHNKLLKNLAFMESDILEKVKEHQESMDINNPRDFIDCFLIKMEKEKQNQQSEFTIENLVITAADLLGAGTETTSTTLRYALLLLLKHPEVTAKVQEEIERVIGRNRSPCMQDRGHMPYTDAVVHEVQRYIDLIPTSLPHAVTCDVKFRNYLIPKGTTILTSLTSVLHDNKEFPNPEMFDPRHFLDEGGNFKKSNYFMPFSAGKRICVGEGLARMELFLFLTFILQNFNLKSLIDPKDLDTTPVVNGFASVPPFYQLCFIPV
Outline: as §1

CYP1A2 = biological target: T4, CYP1A2 (Homo sapiens, UniProt P05177); assay: CYP inhibition assay, human liver microsomes, substrate tacrine; assay type: in vitro ADME; settings: human liver microsomes, 10 min incubation, LC-MS/MS; read-out: CYP Inhibition Activity (IC50/nM) CYP1A2
T4 construct: from tissue; host or cells: human liver microsomes
T4 sequence (P05177 1-516): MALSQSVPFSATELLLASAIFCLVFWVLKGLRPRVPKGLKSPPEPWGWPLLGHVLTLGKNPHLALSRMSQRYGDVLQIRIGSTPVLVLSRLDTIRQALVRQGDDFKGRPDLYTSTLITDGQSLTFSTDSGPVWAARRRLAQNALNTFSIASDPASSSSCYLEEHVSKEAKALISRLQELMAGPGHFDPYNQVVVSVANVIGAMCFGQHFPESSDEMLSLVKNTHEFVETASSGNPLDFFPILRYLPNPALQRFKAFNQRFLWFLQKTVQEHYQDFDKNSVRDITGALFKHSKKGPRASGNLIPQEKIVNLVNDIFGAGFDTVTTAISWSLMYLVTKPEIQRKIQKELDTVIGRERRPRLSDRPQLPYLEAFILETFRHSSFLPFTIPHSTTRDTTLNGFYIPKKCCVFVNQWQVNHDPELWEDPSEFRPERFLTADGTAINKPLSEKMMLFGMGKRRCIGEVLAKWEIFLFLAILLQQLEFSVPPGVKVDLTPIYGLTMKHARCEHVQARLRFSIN
Outline: as §1

SRPK1 = SRPK1 (Homo sapiens, UniProt Q96SB4); assay: In vitro SRPK1 assay (Kinase-Glo); assay type: biochemical
SRPK1, sequence (Q96SB4 whole entry, species assumed): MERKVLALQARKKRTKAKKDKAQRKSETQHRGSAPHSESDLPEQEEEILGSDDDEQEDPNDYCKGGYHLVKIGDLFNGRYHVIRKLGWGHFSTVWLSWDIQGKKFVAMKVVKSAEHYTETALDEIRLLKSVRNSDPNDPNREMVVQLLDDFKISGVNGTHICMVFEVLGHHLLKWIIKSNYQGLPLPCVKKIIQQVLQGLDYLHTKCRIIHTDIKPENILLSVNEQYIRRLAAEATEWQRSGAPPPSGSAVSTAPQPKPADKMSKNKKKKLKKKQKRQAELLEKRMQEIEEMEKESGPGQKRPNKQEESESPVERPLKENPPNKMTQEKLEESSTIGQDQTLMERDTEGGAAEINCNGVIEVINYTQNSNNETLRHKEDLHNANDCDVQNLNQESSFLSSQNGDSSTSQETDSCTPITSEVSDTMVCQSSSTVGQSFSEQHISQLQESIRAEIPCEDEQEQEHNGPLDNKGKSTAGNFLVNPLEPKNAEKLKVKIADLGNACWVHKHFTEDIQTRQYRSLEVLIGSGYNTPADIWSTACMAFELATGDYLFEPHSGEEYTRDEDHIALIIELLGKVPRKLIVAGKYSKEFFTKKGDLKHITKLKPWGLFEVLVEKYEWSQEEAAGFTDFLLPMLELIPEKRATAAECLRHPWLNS

CYP2D6 = biological target: T5, CYP2D6 (Homo sapiens, UniProt P10635); assay: biochemical; assay type: in vitro ADME
T5 construct: from tissue; host or cells: human liver microsomes
T5 sequence (P10635 whole entry): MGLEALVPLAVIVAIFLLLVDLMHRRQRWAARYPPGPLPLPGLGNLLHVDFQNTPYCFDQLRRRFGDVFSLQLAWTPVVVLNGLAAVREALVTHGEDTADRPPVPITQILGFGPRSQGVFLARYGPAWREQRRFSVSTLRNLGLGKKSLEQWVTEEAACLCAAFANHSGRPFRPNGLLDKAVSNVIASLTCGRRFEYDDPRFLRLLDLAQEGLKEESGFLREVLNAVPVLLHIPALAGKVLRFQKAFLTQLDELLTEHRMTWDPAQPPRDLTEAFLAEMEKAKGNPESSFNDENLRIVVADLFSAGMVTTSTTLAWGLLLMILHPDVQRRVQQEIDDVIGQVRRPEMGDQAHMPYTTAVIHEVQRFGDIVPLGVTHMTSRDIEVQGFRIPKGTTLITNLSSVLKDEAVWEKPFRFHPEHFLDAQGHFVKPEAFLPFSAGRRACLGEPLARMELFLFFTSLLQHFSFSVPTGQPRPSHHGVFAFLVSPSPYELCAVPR
Outline: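 Human liver microsomes (0.253 mg/mL working stock) pre-incubated with compound and substrate pool at 37° C for 20 min. Reaction started with NADPH and run 10 min at 37° C, stopped with cold ACN. Metabolite analysed by LC-MS/MS; % inhibition and IC50 calculated versus inhibitor-free control.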

[1] = human liver microsomes, 10 min incubation, LC-MS/MS, read-out: CYP Inhibition Activity (IC50/nM) CYP2C9

T1 sequence (P08684 whole entry): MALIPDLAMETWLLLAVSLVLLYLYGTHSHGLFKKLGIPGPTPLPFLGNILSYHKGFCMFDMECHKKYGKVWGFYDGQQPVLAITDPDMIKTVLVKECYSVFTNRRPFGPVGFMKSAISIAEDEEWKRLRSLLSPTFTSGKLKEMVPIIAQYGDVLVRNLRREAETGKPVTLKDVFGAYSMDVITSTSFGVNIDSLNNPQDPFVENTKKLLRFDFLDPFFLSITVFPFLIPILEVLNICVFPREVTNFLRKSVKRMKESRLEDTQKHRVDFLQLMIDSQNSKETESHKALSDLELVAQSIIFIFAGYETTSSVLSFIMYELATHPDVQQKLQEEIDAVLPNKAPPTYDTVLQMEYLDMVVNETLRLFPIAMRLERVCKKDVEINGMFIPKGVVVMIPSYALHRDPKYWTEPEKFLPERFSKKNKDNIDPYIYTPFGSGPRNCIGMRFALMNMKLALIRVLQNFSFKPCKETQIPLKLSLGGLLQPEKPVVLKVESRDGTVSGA

SMILES | IC50 (CYP3A4) [nM] | IC50 (CYP2C9) [nM] | IC50 (CYP2C19) [nM] | IC50 (CYP1A2) [nM] | IC50 (SRPK1) [nM] | IC50 (CYP2D6; human liver microsomes, 10 min incubation, LC-MS/MS, read-out: CYP Inhibition Activity (IC50/nM) CYP2D6) [nM] | IC50 (CYP2C9; [1]) [nM] | IC50 (CYP2D6) [nM]
O=C(Nc1cc(C(F)(F)F)ccc1N1CCC2(CCCC2)CC1)c1ccc(C2CCOCC2)o1 [Example 98, N-(2-(8-azaspirol4.51decan-8-yl)-5-(trifluoromethyl)phenyl)-5-(tetrahydro-2H-pyran-4-yl)furan-2-carboxamide] | > 30000 | 18600 | > 30000 | > 30000 | 7.5 | > 30000 | – | –
CN(C)CC1(C)CCN(c2ccc(Cl)cc2NC(=O)c2ccc(C3CCOCC3)o2)CC1 [Example 91, N-(5-chloro-2-(4-((dimethylamino)methyl)-4-methylpiperidin-1-yl)phenyl)-5-(tetrahydro-2H-pyran-4-yl)furan-2-carboxamide] | 19000 | – | 20800 | > 30000 | 41 | – | 14900 | 200
O=C(Nc1cc(C2CC2)ccc1N1CCC(O)(CC2CC2)CC1)c1ccc(C2CCOCC2)o1 [Example 71, N-(5-cyclopropyl-2-(4-(cyclopropylmethyl)-4-hydroxypiperidin-1-yl)phenyl)-5-(tetrahydro-2H-pyran-4-yl)furan-2-carboxamide] | 4190 | – | 2700 | > 30000 | 2.9 | – | 5420 | 8790
CN(C)CC1(C)CCN(c2ccc(C(F)(F)F)cc2NC(=O)c2ccc(C3CCOCC3)o2)CC1 [Example 83, N-(2-(4-((dimethylamino)methyl)-4-methyl-piperidin-1-yl)-5-(trifluoromethyl)phenyl)-5-(tetrahydro-2H-pyran-4-yl)furan-2-carboxamide] | 21000 | – | > 30000 | > 30000 | 3.2 | – | 24300 | 3200
CC1(O)CCN(c2ccc(C(F)F)cc2NC(=O)c2ccc(C3CCOCC3)o2)CC1 [Example 14, N-(5-(difluoromethyl)-2-(4-hydroxy-4-methyl-piperidin-1-yl)phenyl)-5-(tetrahydro-2H-pyran-4-yl)furan-2-carboxamide] | 7700 | – | 7700 | 19000 | 7.3 | – | 3800 | 25900
CC1(CO)CCN(c2ccc(C3CC3)cc2NC(=O)c2ccc(C3CCOCC3)o2)CC1 [Example 67, N-(5-cyclopropyl-2-(4-(hydroxymethyl)-4-methylpiperidin-1-yl)phenyl)-5-(tetrahydro-2H-pyran-4-yl)furan-2-carboxamide] | > 30000 | – | 7900 | > 30000 | 4.1 | – | 3300 | > 30000
CC1(CN2CCCC2)CCN(c2ccc(C(F)(F)F)cc2NC(=O)c2ccc(C3CCOCC3)o2)CC1 [Example 95, N-(2-(4-methyl-4-(pyrrolidin-1-ylmethyl)piperidin-1-yl)-5-(trifluoromethyl)phenyl)-5-(tetrahydro-2H-pyran-4-yl)furan-2-carboxamide] | 7300 | – | > 30000 | > 30000 | 24 | – | 10100 | 400
O=C(Nc1cc(C(F)(F)F)ccc1N1CCC(O)C1)c1ccc(C2CCOCC2)o1 (racemic) [Example 57, N-(2-(3-hydroxypyrrolidin-1-yl)-5-(trifluoromethyl)-phenyl)-5-(tetrahydro-2H-pyran-4-yl)furan-2-carboxamide] | > 30000 | – | 14500 | 9160 | 75 | – | 5550 | 11500
O=C(Nc1cc(C(F)(F)F)ccc1N1CCC(O)(CC2CC2)CC1)c1ccc(C2CCOCC2)o1 [Example 23, N-(2-(4-(cyclopropylmethyl)-4-hydroxypiperidin-1-yl)-5-(trifluoromethyl)phenyl)-5-(tetrahydro-2H-pyran-4-yl)furan-2-carboxamide] | 2650 | – | 260 | 2510 | 64 | – | 220 | 30

From patent publication US11420969B2 (Exonate Limited, priority 2017, dated 2022)
